Laboratory results published in publication PMC5218480 (PLoS ONE, 2017).

System: MV-4-11 cells
Test: Gene expression microarray analysis (Affymetrix PrimeView) and GSEA
Format: cell-based, human
Set-up: RFU PODN (11730768_x_at) / Fold change /veh PODN (11730768_x_at) / RFU LINC00158 (11744669_a_at) / Fold change /veh LINC00158 (11744669_a_at) / RFU DUSP10 (11751237_a_at) / Fold change /veh DUSP10 (11751237_a_at) / RFU ID3 (11757404_x_at) / Fold change /veh ID3 (11757404_x_at) / RFU PLEKHG5 (11737974_s_at) / Fold change /veh PLEKHG5 (11737974_s_at) / RFU LRRC4B (11730491_at) / Fold change /veh LRRC4B (11730491_at) / RFU GIMAP4 (11747438_a_at) / Fold change /veh GIMAP4 (11747438_a_at) / RFU KRT8 (11758183_x_at) / Fold change /veh KRT8 (11758183_x_at) / RFU CNN1 (11734310_a_at) / Fold change /veh CNN1 (11734310_a_at) / RFU VPS37D (11726825_at) / Fold change /veh VPS37D (11726825_at) / RFU C10orf10 (11716522_x_at) / Fold change /veh C10orf10 (11716522_x_at) / RFU KIR2DL2 /// KIR2DL4 /// KIR2DL5A /// KIR2DL5B /// KIR2DS1 /// KIR2DS2 /// KIR2DS3 /// KIR2DS4 /// KIR3DL3 /// KIR3DL3 /// KIR3DS1 (11738374_at) / Fold change /veh KIR2DL2 /// KIR2DL4 /// KIR2DL5A /// KIR2DL5B /// KIR2DS1 /// KIR2DS2 /// KIR2DS3 /// KIR2DS4 /// KIR3DL3 /// KIR3DL3 /// KIR3DS1 (11738374_at) / RFU C1QL1 (11718748_at) / Fold change /veh C1QL1 (11718748_at) / RFU TMPRSS4 (11747572_a_at) / Fold change /veh TMPRSS4 (11747572_a_at) / RFU HAMP (11756126_x_at) / Fold change /veh HAMP (11756126_x_at) / RFU RNFT2 (11725882_a_at) / Fold change /veh RNFT2 (11725882_a_at) / RFU NR4A2 (11747474_a_at) / Fold change /veh NR4A2 (11747474_a_at) / RFU ABCC12 (11746883_a_at) / Fold change /veh ABCC12 (11746883_a_at) / RFU TMEM136 (11760407_x_at) / Fold change /veh TMEM136 (11760407_x_at) / RFU CLDN22 /// WWC2 (11732394_at) / Fold change /veh CLDN22 /// WWC2 (11732394_at) / RFU HLA-DPB1 (11760878_x_at) / Fold change /veh HLA-DPB1 (11760878_x_at) / RFU SPINT1 (11716480_a_at) / Fold change /veh SPINT1 (11716480_a_at) / RFU GAP43 (11754022_s_at) / Fold change /veh GAP43 (11754022_s_at) / RFU A4GNT (11735810_at) / Fold change /veh A4GNT (11735810_at) / RFU PRB3 (11715151_x_at) / Fold change /veh PRB3 (11715151_x_at) / RFU TUBB4B (11761932_at) / Fold change /veh TUBB4B (11761932_at) / RFU CAPN14 (11732068_a_at) / Fold change /veh CAPN14 (11732068_a_at) / RFU TMCC2 (11721928_a_at) / Fold change /veh TMCC2 (11721928_a_at) / RFU IRGQ (11745062_a_at) / Fold change /veh IRGQ (11745062_a_at) / RFU FAM174B (11720279_a_at) / Fold change /veh FAM174B (11720279_a_at) / RFU TMPRSS4 (11748680_a_at) / Fold change /veh TMPRSS4 (11748680_a_at) / RFU FAM212B (11763350_a_at) / Fold change /veh FAM212B (11763350_a_at) / RFU PLEKHG5 (11743358_a_at) / Fold change /veh PLEKHG5 (11743358_a_at) / RFU ZSCAN30 (11745921_a_at) / Fold change /veh ZSCAN30 (11745921_a_at) / RFU CMKLR1 (11741424_a_at) / Fold change /veh CMKLR1 (11741424_a_at) / RFU LOC101060620 /// MAPK8IP1 (11723275_at) / Fold change /veh LOC101060620 /// MAPK8IP1 (11723275_at) / RFU SPTSSB (11747773_x_at) / Fold change /veh SPTSSB (11747773_x_at) / RFU PRSS12 (11739890_at) / Fold change /veh PRSS12 (11739890_at) / RFU BIN1 (11741810_x_at) / Fold change /veh BIN1 (11741810_x_at) / RFU WNT11 (11732464_a_at) / Fold change /veh WNT11 (11732464_a_at) / RFU C10orf10 (11716521_a_at) / Fold change /veh C10orf10 (11716521_a_at) / RFU C5orf56 (11738089_at) / Fold change /veh C5orf56 (11738089_at) / RFU CYB561 (11721691_x_at) / Fold change /veh CYB561 (11721691_x_at) / RFU ANKRD19P (11752326_a_at) / Fold change /veh ANKRD19P (11752326_a_at) / RFU OR2T12 /// OR2T33 /// OR2T8 (11738714_s_at) / Fold change /veh OR2T12 /// OR2T33 /// OR2T8 (11738714_s_at) / RFU VCAN (11748164_a_at) / Fold change /veh VCAN (11748164_a_at) / RFU JSRP1 (11732532_at) / Fold change /veh JSRP1 (11732532_at) / RFU KRTAP10-11 (11738290_x_at) / Fold change /veh KRTAP10-11 (11738290_x_at) / RFU MYO3A (11730013_a_at) / Fold change /veh MYO3A (11730013_a_at) / RFU EBF3 (11725865_a_at) / Fold change /veh EBF3 (11725865_a_at) / RFU CAMK2N1 (11719241_x_at) / Fold change /veh CAMK2N1 (11719241_x_at) / RFU C5orf56 (11738088_a_at) / Fold change /veh C5orf56 (11738088_a_at) / RFU OLFML3 (11715873_a_at) / Fold change /veh OLFML3 (11715873_a_at) / RFU LOC100653217 /// NTM (11731650_a_at) / Fold change /veh LOC100653217 /// NTM (11731650_a_at) / RFU MAPK11 (11762145_a_at) / Fold change /veh MAPK11 (11762145_a_at) / RFU FIZ1 (11724087_x_at) / Fold change /veh FIZ1 (11724087_x_at) / RFU OASL (11726364_x_at) / Fold change /veh OASL (11726364_x_at) / RFU SOX15 (11748057_x_at) / Fold change /veh SOX15 (11748057_x_at) / RFU CD79A (11719716_a_at) / Fold change /veh CD79A (11719716_a_at) / RFU HIST1H1D (11736915_at) / Fold change /veh HIST1H1D (11736915_at) / RFU CASKIN2 (11723855_a_at) / Fold change /veh CASKIN2 (11723855_a_at) / RFU LOC730098 (11760151_x_at) / Fold change /veh LOC730098 (11760151_x_at) / RFU OR4N2 (11742367_at) / Fold change /veh OR4N2 (11742367_at) / RFU PRRT2 (11749266_a_at) / Fold change /veh PRRT2 (11749266_a_at) / RFU SNX32 (11753110_a_at) / Fold change /veh SNX32 (11753110_a_at) / RFU CDHR5 (11726645_a_at) / Fold change /veh CDHR5 (11726645_a_at) / RFU RCAN1 (11760418_a_at) / Fold change /veh RCAN1 (11760418_a_at) / RFU FAM167A (11723789_a_at) / Fold change /veh FAM167A (11723789_a_at) / RFU FAM26E (11764081_at) / Fold change /veh FAM26E (11764081_at) / RFU ISYNA1 (11749810_s_at) / Fold change /veh ISYNA1 (11749810_s_at) / RFU ACY1 (11761880_at) / Fold change /veh ACY1 (11761880_at) / RFU 11764098_at / Fold change /veh 11764098_at / RFU SAMD14 (11745864_x_at) / Fold change /veh SAMD14 (11745864_x_at) / RFU NPB (11741838_a_at) / Fold change /veh NPB (11741838_a_at) / RFU TMPRSS6 (11731388_a_at) / Fold change /veh TMPRSS6 (11731388_a_at) / RFU KRTAP10-2 (11738614_at) / Fold change /veh KRTAP10-2 (11738614_at) / RFU ARHGAP8 /// PRR5-ARHGAP8 (11727945_x_at) / Fold change /veh ARHGAP8 /// PRR5-ARHGAP8 (11727945_x_at) / RFU KRTAP5-7 /// NADSYN1 (11734609_at) / Fold change /veh KRTAP5-7 /// NADSYN1 (11734609_at) / RFU RASL12 (11751679_a_at) / Fold change /veh RASL12 (11751679_a_at) / RFU CDKN2B (11736163_a_at) / Fold change /veh CDKN2B (11736163_a_at) / RFU PRF1 (11729649_at) / Fold change /veh PRF1 (11729649_at) / RFU, ZNF638 /// ZNF638-IT1 / Fold change vs veh, ZNF638 /// ZNF638-IT1 / RFU, PANK3 / Fold change vs veh, PANK3 / RFU, SH3YL1 / Fold change vs veh, SH3YL1 / RFU, ZEB2 / Fold change vs veh, ZEB2 / RFU, NRIP1 / Fold change vs veh, NRIP1 / RFU, PTTG1IP / Fold change vs veh, PTTG1IP / RFU, CAPN2 / Fold change vs veh, CAPN2 / RFU, MED14 / Fold change vs veh, MED14 / RFU, SNORA58 / Fold change vs veh, SNORA58 / RFU, C1orf63 / Fold change vs veh, C1orf63 / RFU, LRRFIP1 / Fold change vs veh, LRRFIP1 / RFU, NDUFAF7 / Fold change vs veh, NDUFAF7 / RFU, SLC12A2 / Fold change vs veh, SLC12A2 / RFU, IBTK / Fold change vs veh, IBTK / RFU, ESF1 / Fold change vs veh, ESF1 / Fold change vs veh, TMEM50B / RFU, TAOK1 / Fold change vs veh, TAOK1 / RFU, ACBD3 / Fold change vs veh, ACBD3 / RFU, TMA16 / Fold change vs veh, TMA16 / RFU, RWDD3 / Fold change vs veh, RWDD3 / RFU, BCAT1 / Fold change vs veh, BCAT1 / RFU, EDEM3 / Fold change vs veh, EDEM3 / RFU, TMEM33 / Fold change vs veh, TMEM33 / RFU, WDR75 / Fold change vs veh, WDR75 / RFU, AHCTF1 / Fold change vs veh, AHCTF1 / RFU, TFRC / Fold change vs veh, TFRC / RFU, ZDHHC17 / Fold change vs veh, ZDHHC17 / RFU, NOM1 / Fold change vs veh, NOM1 / RFU, ARL8B / Fold change vs veh, ARL8B / RFU, ZBTB11 / Fold change vs veh, ZBTB11 / RFU, TAMM41 / Fold change vs veh, TAMM41 / RFU, KIAA1704 /// LOC100996395 / Fold change vs veh, KIAA1704 /// LOC100996395 / RFU, ING1 / Fold change vs veh, ING1 / RFU, TRMT61B / Fold change vs veh, TRMT61B / RFU, FUBP3 / Fold change vs veh, FUBP3 / RFU, TP53 / Fold change vs veh, TP53 / RFU, TNKS2 / Fold change vs veh, TNKS2 / RFU, ZFP14 / Fold change vs veh, ZFP14 / RFU, ACTR2 / Fold change vs veh, ACTR2 / RFU, PPP3R1 / Fold change vs veh, PPP3R1 / RFU, PIK3R1 / Fold change vs veh, PIK3R1 / RFU, HNRNPA1 / Fold change vs veh, HNRNPA1 / RFU, RNF170 / Fold change vs veh, RNF170 / RFU, ZNF28 / Fold change vs veh, ZNF28 / RFU, RNGTT / Fold change vs veh, RNGTT / RFU, OGT / Fold change vs veh, OGT / RFU, BRD1 / Fold change vs veh, BRD1 / RFU, MARS / Fold change vs veh, MARS / RFU, ZNF655 / Fold change vs veh, ZNF655 / RFU, FAHD1 / Fold change vs veh, FAHD1 / RFU, BDP1 / Fold change vs veh, BDP1 / RFU, LRRCC1 / Fold change vs veh, LRRCC1 / RFU, ARID1A / Fold change vs veh, ARID1A / RFU, ZNF146 / Fold change vs veh, ZNF146 / RFU, ZNF330 / Fold change vs veh, ZNF330 / RFU, GPN3 / Fold change vs veh, GPN3 / RFU, C9orf123 / Fold change vs veh, C9orf123 / RFU, N4BP2L2 / Fold change vs veh, N4BP2L2 / RFU, ARFIP1 / Fold change vs veh, ARFIP1 / RFU, FAM179B / Fold change vs veh, FAM179B / RFU, BCL10 / Fold change vs veh, BCL10 / RFU, UHRF1BP1L / Fold change vs veh, UHRF1BP1L / RFU, BET1 / Fold change vs veh, BET1 / RFU, CNOT2 / Fold change vs veh, CNOT2 / RFU, ZNF268 / Fold change vs veh, ZNF268 / Fold change vs veh, ZNF507 / RFU, DGCR2 / Fold change vs veh, DGCR2 / RFU, WDSUB1 / Fold change vs veh, WDSUB1 / Fold change vs veh, HSP90B1 /// MIR3652 / RFU, ADSS / Fold change vs veh, ADSS / RFU, GK / Fold change vs veh, GK / RFU, ZNF148 / Fold change vs veh, ZNF148 / RFU, TAF9 / Fold change vs veh, TAF9 / RFU, SLC1A5 / Fold change vs veh, SLC1A5 / RFU, SLMO2 / Fold change vs veh, SLMO2 / RFU, ABCC4 / Fold change vs veh, ABCC4 / RFU, LOC101060439 /// RAP1B / Fold change vs veh, LOC101060439 /// RAP1B / RFU, RFX7 / Fold change vs veh, RFX7 / RFU, GTPBP10 / Fold change vs veh, GTPBP10 / RFU, CNEP1R1 / Fold change vs veh, CNEP1R1 / RFU, BIVM-ERCC5 /// ERCC5 / Fold change vs veh, BIVM-ERCC5 /// ERCC5 / RFU, ILF3 / Fold change vs veh, ILF3 / RFU 11762660_at / Fold change /veh 11762660_at / RFU VCAN (11757783_s_at) / Fold change /veh VCAN (11757783_s_at) / RFU DDX43 (11728927_at) / Fold change /veh DDX43 (11728927_at) / RFU KRT8 (11758188_x_at) / Fold change /veh KRT8 (11758188_x_at) / RFU NKD1 (11759106_at) / Fold change /veh NKD1 (11759106_at) / RFU SRD5A1 (11742802_a_at) / Fold change /veh SRD5A1 (11742802_a_at) / RFU TPSAB1 /// TPSB2 (11721975_s_at) / Fold change /veh TPSAB1 /// TPSB2 (11721975_s_at) / RFU GSTM3 (11746129_a_at) / Fold change /veh GSTM3 (11746129_a_at) / RFU IL23R (11737362_x_at) / Fold change /veh IL23R (11737362_x_at) / RFU TMEM51 (11727254_a_at) / Fold change /veh TMEM51 (11727254_a_at) / RFU PIWIL2 (11732686_x_at) / Fold change /veh PIWIL2 (11732686_x_at) / RFU ORM1 (11744905_x_at) / Fold change /veh ORM1 (11744905_x_at) / RFU CCDC152 (11743942_at) / Fold change /veh CCDC152 (11743942_at) / RFU ECM1 (11717891_a_at) / Fold change /veh ECM1 (11717891_a_at) / RFU IL23R (11748794_a_at) / Fold change /veh IL23R (11748794_a_at) / RFU TNFAIP8L3 (11732012_x_at) / Fold change /veh TNFAIP8L3 (11732012_x_at) / RFU MBOAT4 (11741988_at) / Fold change /veh MBOAT4 (11741988_at) / RFU 11764193_at / Fold change /veh 11764193_at / RFU TMEM53 (11763286_at) / Fold change /veh TMEM53 (11763286_at) / RFU MAGEB2 (11727129_at) / Fold change /veh MAGEB2 (11727129_at) / RFU TMEM200A (11744735_a_at) / Fold change /veh TMEM200A (11744735_a_at) / RFU CCDC152 (11751479_a_at) / Fold change /veh CCDC152 (11751479_a_at) / RFU FAM211A (11726209_a_at) / Fold change /veh FAM211A (11726209_a_at) / RFU RGS16 (11746705_a_at) / Fold change /veh RGS16 (11746705_a_at) / RFU VCAN (11755009_s_at) / Fold change /veh VCAN (11755009_s_at) / RFU RHOB (11743442_s_at) / Fold change /veh RHOB (11743442_s_at) / RFU RGS16 (11720943_a_at) / Fold change /veh RGS16 (11720943_a_at) / RFU RGS16 (11720944_at) / Fold change /veh RGS16 (11720944_at) / RFU, VPS4B / Fold change vs veh, VPS4B / RFU, CREB1 / Fold change vs veh, CREB1 / RFU, DNAJC13 / Fold change vs veh, DNAJC13 / RFU, GNAQ / Fold change vs veh, GNAQ / RFU, CDK5R1 / Fold change vs veh, CDK5R1 / RFU, ZRANB3 / Fold change vs veh, ZRANB3 / RFU, CUL4A / Fold change vs veh, CUL4A / RFU, CCNY / Fold change vs veh, CCNY / RFU, UFL1 / Fold change vs veh, UFL1 / RFU, COG3 / Fold change vs veh, COG3 / RFU, DIAPH2 / Fold change vs veh, DIAPH2 / RFU, SKA2 / Fold change vs veh, SKA2 / RFU, AFF3 / Fold change vs veh, AFF3 / RFU, LMF1 / Fold change vs veh, LMF1 / RFU, IPO11 / Fold change vs veh, IPO11 / RFU, DFFB / Fold change vs veh, DFFB / RFU, FOXP1 / Fold change vs veh, FOXP1 / RFU, CARD8 / Fold change vs veh, CARD8 / RFU, STRN3 / Fold change vs veh, STRN3 / RFU, ADK / Fold change vs veh, ADK / RFU, RASSF2 / Fold change vs veh, RASSF2 / RFU, WIPF1 / Fold change vs veh, WIPF1 / RFU, LARP1B / Fold change vs veh, LARP1B / RFU, RASA1 / Fold change vs veh, RASA1 / RFU, RB1 / Fold change vs veh, RB1 / RFU, PPFIA1 / Fold change vs veh, PPFIA1 / RFU, MAT2A / Fold change vs veh, MAT2A / RFU, CCT5 / Fold change vs veh, CCT5 / RFU, WDR92 / Fold change vs veh, WDR92 / RFU, CUX1 / Fold change vs veh, CUX1 / RFU, TTC7A / Fold change vs veh, TTC7A / RFU, TMEM135 / Fold change vs veh, TMEM135 / RFU, DEPTOR / Fold change vs veh, DEPTOR / RFU, CPM / Fold change vs veh, CPM / RFU, DNAJB6 / Fold change vs veh, DNAJB6 / RFU, CACNA2D3 / Fold change vs veh, CACNA2D3 / RFU, DTX4 / Fold change vs veh, DTX4 / RFU, TFCP2 / Fold change vs veh, TFCP2 / RFU, GMCL1 /// GMCL1P1 / Fold change vs veh, GMCL1 /// GMCL1P1 / RFU, AEBP2 / Fold change vs veh, AEBP2 / RFU, SNHG1 /// SNORD22 /// SNORD25 /// SNORD26 /// SNORD27 /// SNORD28 /// SNORD29 /// SNORD31 / Fold change vs veh, SNHG1 /// SNORD22 /// SNORD25 /// SNORD26 /// SNORD27 /// SNORD28 /// SNORD29 /// SNORD31 / Fold change (Aza/veh), C12orf56 (ProbeSet 11735607_a_at) / Fold change (ACY-1035/veh), C12orf56 (ProbeSet 11735607_a_at) / Fold change (Aza/veh), FGFR1OP (ProbeSet 11751329_s_at) / Fold change (ACY-1035/veh), FGFR1OP (ProbeSet 11751329_s_at) / Fold change (Aza/veh), VPS36 (ProbeSet 11739960_a_at) / Fold change (ACY-1035/veh), VPS36 (ProbeSet 11739960_a_at) / RFU SYPL1 (11715823_x_at) / Fold change /veh SYPL1 (11715823_x_at) / RFU IGFBP7 (11715501_s_at) / Fold change /veh IGFBP7 (11715501_s_at) / RFU REEP3 (11722064_at) / Fold change /veh REEP3 (11722064_at) / RFU IGLL1 (11728026_x_at) / Fold change /veh IGLL1 (11728026_x_at): dose or concentration left out as unconfirmed
Details: MV-4-11 cells, 48 hours

Nc1ncn([C@@H]2O[C@H](CO)[C@@H](O)[C@H]2O)c(=O)n1 [azacitidine]
RFU ACY1 (11761880_at): 18.62 RFU
